US12594228B2, “Composition for hair protection or hair strengthening” (AMOREPACIFIC CORPORATION, priority 2024, dated 2026)

Tests used:
[1] = Penetration and binding in hair by confocal microscopy; settings: fluorescent substance applied to hair, FIG. 6, FIG. 7
From the text: A green fluorescent substance (FITC; Fluorescein isothiocyanate) was conjugated to palmitoyl-CWK, a tripeptide (i.e., palmitoyl tripeptide) covalently bound to palmitic acid at the N-terminus (fluorescent labeling) and applied to hair. After that, the change in hair structure that affects the increase in hair tensile strength was confirmed by comparing the colored areas using a confocal microscopy.
Meanwhile, for comparison of hair penetration routes, the water-soluble fluorescent substance 5-(4-Dimethylaminobenzylidene) rhodanine was applied to the hair, and the colored area (indicated in gray in FIG. 7) was confirmed using a confocal microscope.

[2] = Tensile strength of bleached hair tresses treated with test substance (MTT175); parameters: species or system human; settings: test substance 0.01 wt % in purified water and ethanol (80 wt %), about 30 minutes; FIG. 4, FIG. 5
Procedure: The compositions in Table 2 above were applied to human hair to compare tensile strength.
(§1) Specifically, bleached hair tresses (1 g, manufactured by Beaulax) were prepared. The hair tresses were washed using a basic shampoo without conditioning function, rinsed for 1 minute, and dried for 2 minutes. The dried hair tresses (1 g) were immersed in 100 g of a solution in which the test substance (the mixture of Example 1 or the mixture of Comparative Example 1 in Table 2 above) was dissolved at 0.1 wt % (wherein the solution is a solution in which the test substance (0.1 wt %) is dissolved in purified water (remaining amount) for about 30 minutes. The immersed hair tresses were rinsed in running water for 1 minute and then naturally dried for more than 12 hours. Thirty hair strands were randomly selected from each hair tresses treated with the test substance. Thirty hair strands were randomly selected from the control hair tresses that were not treated with the test substance. The tensile strength of each selected hair was measured using an MTT175 (manufactured by DiaStron) device.
The tensile strength was compared by applying the test substance (the above 5 types of tripeptides) to the hair using the same method as in ‘Experimental Example 2. (1) Measurement of tensile strength’.
as §1, with “(synthesized tripeptide)” for “(the mixture of Example 1 or the mixture of Comparative Example 1 in Table 2 above)”, “0.01” for “0.1”, “(0.01” for “(0.1”, “(residue) and ethanol (80 wt %))” for “(remaining amount)”
Specifically, the tripeptide was synthesized using the same method as the peptide synthesis method of ‘Experimental Example 3’ above, but palmitic acid was added to the N-terminus of the peptide (reagents: HBTU (Hexafluorophosphate Benzotriazole), NMM (N-Methylmorpholine), DMF (Dimethylformamide), 1 hour at room temperature, concentration 0.3 M), and a tripeptide with palmitic acid covalently bonded to the N-terminus (i.e., palmitoyl tripeptide) was synthesized. After that, the test substance (tripeptide with palmitic acid covalently bonded to the N-terminus) was applied to the hair and the tensile strength was compared using the same method as in ‘Experimental Example 3. (1) Measurement of tensile strength’.

hair structural proteins = assay: Denaturation enthalpy of hair structural proteins by DSC; settings: bleached hair, test substance 0.01 wt % in purified water and ethanol (80 wt %), 30 minutes; FIG. 3
Procedure: The denaturation enthalpy of hair structural proteins was compared according to whether or not the test substance was treated using a DSC (Differential Scanning calorimetry) analyzer. DSC is used as an analysis method to confirm the stability of hair structural proteins. Damage to the hair reduces the stability of hair structural proteins and decreases the enthalpy of denaturation. Specifically, bleached hair tresses (1 g. manufactured by Beaulax) were prepared. The hair tresses were washed using a basic shampoo without a conditioning function, rinsed for 1 minute, and dried for 2 minutes. The dried hair tresses (1 g) were immersed in 100 g of a solution in which the test substance (mixture of Example 1 in Table 2 above) was dissolved at 0.01 wt % (at this time, the solution is a solution in which the mixture of Example 1 (0.01 wt %) is dissolved in purified water (residue) and ethanol (80 wt %)) for 30 minutes. The immersed hair tresses were rinsed in running water for 1 minute and then naturally dried for more than 12 hours. Each treated hair tress was cut into 1 mm lengths, placed in an aluminum high-pressure capsule with 3-5 mg of the cut hair tress and 6-15 mg of distilled water, and combined. […] The denaturation enthalpies of the prepared DSC samples were measured using a DSC (Discovery DSC 250, TA Instruments) device (50-190 degrees, 10 degrees/min).
The denaturation enthalpy was measured by the same method as in ‘Experimental Example 2. (2) Measurement of denaturation enthalpy’, but the denaturation enthalpy was compared by applying applied CWK tripeptide as a test substance to hair.
The denaturation enthalpy was measured by the same method as in ‘Experimental Example 2. (2) Measurement of denaturation enthalpy’, but the denaturation enthalpy was compared by applying a tripeptide with palmitic acid covalently bonded to the N-terminus (i.e. palmitoyl tripeptide) to hair as the test substance.

[3] = Elasticity (horizontal resistance) of heat-treated hair simulating eyebrows; parameters: species or system human; settings: hair heat-treated at 160° C. 20 times, then 0.01 wt % test substance in purified water, about 30 minutes; FIG. 11
Procedure: (§2) Specifically, since it is difficult to obtain eyebrows to be used for evaluation directly from a living body, human hair corresponding to the thickness of eyebrows was selected through Fibra.one (manufactured by DiaStron). The length was prepared to a level that can be applied to a machine measuring tensile strength. Heat-treated hair was prepared by applying pressure by hand at 160° C. 20 times with a hair straightener to the prepared human hair tresses. Hair that had not been heat-treated was prepared as a control group (untreated hair in FIGS. 9 and 11). In Experimental Example 6, the untreated hair was not treated with the test substance.
(§3) After that, the heat-treated hair tresses were treated with the test substance, KCV (KCV-treated hair in FIGS. 9 and 11). Specifically, the prepared tresses (1 g, manufactured by Beaulax) were washed using a basic cleanser without conditioning function, rinsed for 1 minute, and dried for 2 minutes. […]
The elasticity of KCV-treated hair, heat-damaged hair, and untreated hair was compared. Elasticity was defined as the horizontal resistance of hair, and elasticity was measured through each step of [Method for Measuring Hair Elasticity] below (see FIG. 10). […]

[4] = Tensile strength of heat-treated hair simulating eyebrows (Fibra.one); parameters: species or system human; settings: hair heat-treated at 160° C. 20 times, then 0.01 wt % test substance in purified water, about 30 minutes; FIG. 9
Procedure: as §2, §3
Specifically, 30 hair strands were randomly selected from each tress (KCV-treated hair) treated with the test substance. […] The tensile strength of each selected hair was measured using a Fibra.one (manufactured by DiaStron).

Molecule | tensile strength of hair compared to control bleached hair tresses [2] | denaturation enthalpy of hair structural protein compared to control hair (hair structural proteins) | other results
CN(C)c1ccc(C=C2SC(=S)NC2=O)cc1 [5-(4-Dimethylaminobenzylidene) rhodanine] |  |  | penetration and binding in hair (colored areas) [1]: barely remained in the cuticle layer on the hair surface and did not fill the lost area of CMC inside the hair
CKF | significantly increased |  | 
CWK | significantly increased | significantly increased | 
KCL | significantly increased |  | 
KCV | significantly increased |  | elasticity compared to heat-damaged hair tresses [3]: significantly increased; tensile strength (break load) per area compared to heat-damaged hair tresses [4]: significantly increased
PCP [reference compound] | not significant |  | 
palmitoyl-CKF [pal-CKF] | significantly increased | significantly increased | 
palmitoyl-CWK [pal-CWK] | significantly increased | significantly increased | 
palmitoyl-KCV [pal-KCV] | significantly increased | significantly increased | 
